Assay results taken from US8309058B2, “Method for obtaining highly luminescent lanthanide complexes” (Commissariat a l'Energie Atomique, priority 2005, dated 2012).
Like-named read-outs stand apart in the source and are kept apart here.

Key:
[1] = potentiometric titration: stability of the Ca(II) complex; type: physicochemical
Method: (§1) The solutions of Ca(II) could be prepared by dissolution of CaCI2 in water. The exact concentration of the ion Ca^2+ can be determined by colorimetric titration at a pH 12.5 using as a reference a solution of […] calgonite as an indicator. 20 mL of a solution of […] (3,10-^4 M), acidified (pH 2.5) 1:1 Ln:mixture of ligands ([L] 3.10-^4 M), acidified (pH 2.5) 1:1 Ca:mixture of ligands ([L] 7.10-^5M) are titrated in a cell with a thermostat (25.0° C.+/-0.1° C.) under Argon after addition of a solution of KOH 0.1 M. The ionic load was determined with KCl (μ=00.1 M). The titrations have been conducted with a Metrohm 751 GPD Titrino potentiometer fitted with a glass pH electrode. The electrode system was calibrated before each measurement. The electromotive load is given by the equation E=E°+sp[H^+] wherein E° and s are determined by titration of a known amount de HCl with 0.1 M KOH at μ=0.1 M (KCl), using the zone of the acid for the titration. […] More than 50 data points have been collected for each experiment.

[2] = cited from earlier work
[3] = cited from earlier work; remark: listed apart in the source
[4] = potentiometric titration: de-protonation constants of the ligand; type: physicochemical; settings: 25.0° C., μ=0.1 M KCl, listed as H6tpaen
Text: Besides, five de-protonation constants [pKa1=2.8 (1), pKa22=3.2 (1), pKa3=3.9 (2), pKa4=5.1 (1) and pKa5=7.8 (1)] may be determined for the ligand H6tpaen by potentiometric titration as well the stability constants of the corresponding complexes of Eu^III and of CaII [log βEuL=15.3(3) for the complex of Eu^III and log βCaL=8.5 (5)].
For potentiometric titration, the solutions of the complex of Eu(III) may be prepared by dissolution of a determined amount of EuCI3.6H2O in water. The de-protonation constants of H6tpaen are given by Kai=[H6-iL]^2-1/[H5−iL]^1-i[H]^+, and as already mentioned previously, the values obtained are pKa1=2.8(1), pKa2=3.2(1), pKa3=3.9(2), pKa44=5.1(1) and pKa5=7.8(1).
The solutions of Ca(II) could be prepared by dissolution of CaCI2 in water. The exact concentration of the ion Ca^2+ can be determined by colorimetric titration at a pH 12.5 using as a reference a solution of H2Na2edta and calgonite as an indicator. 20 mL of a solution of H4tpaen (3,10−^4 M), acidified (pH˜2.5) 1:1 Ln:mixture of ligands ([L] 3.10−^4 M), acidified (pH˜2.5) 1:1 Ca:mixture of ligands ([L] 7.10−^5M) are titrated in a cell with a thermostat (25.0° C.+/−0.1° C.) under Argon after addition of a solution of KOH 0.1 M.
The ionic load was determined with KCl (μ=00.1 M). The titrations have been conducted with a Metrohm 751 GPD Titrino potentiometer fitted with a glass pH electrode. The electrode system was calibrated before each measurement.
The electromotive load is given by the equation E=E°+sp[H^+] wherein E° and s are determined by titration of a known amount de HCl with 0.1 M KOH at μ=0.1 M (KCl), using the zone of the acid for the titration. The value used for the ionic product of water was pKw=13.77. More than 50 data points have been collected for each experiment.

[5] = absorption / excitation spectra; type: physicochemical
Text: (full line) and [Tb(tpaen)] (dotted line) after excitation of the ligand at 274 nm.
An efficient energy transfer from the ligand to the metal is put forward by the resemblance between the excitation and absorption spectra of the Europium and Terbium complexes.

[6] = potentiometric titration: stability of the Eu(III) complex; type: physicochemical
Text: as §1, with “For potentiometric titration, the solutions of the complex of Eu(III) may be prepared by dissolution of a determined amount of EuCI3.6H2O in water. […] The exact concentration of the ion Eu^3+ could be determined by colorimetric titration in an acetate buffer (pH=4.5), using as a reference a solution of […] orange xylenol as an indicator. The solutions” for “The solutions”

[7] = stability of the Gd complex (pGd); type: physicochemical; settings: pH 7.4, [M]total=1 μM, [ligand]total=10 μM
[8] = pH 7.4, [M]total=1 μM, [ligand]total=10 μM

In the case of `O=C([O-])c1cccc(CN(CCN(Cc2cccc(C(=O)O)n2)Cc2cccc(C(=O)O)n2)Cc2cccc(C(=O)[O-])n2)n1.[Ca+2]` [Catpaen], the “stability constant log βCaL” value ([1]; potentiometric titration, 25.0° C., μ=0.1 M KCl) is reported as 8.5 (5).

In the case of `O=C(O)CN(CCN(CC(=O)O)CC(=O)O)CC(=O)O` [EDTA, tetra acetic diamine ethylene acid], the “pEu, comparison value for EDTA” value [2] is listed as 14.0.

In the case of `O=C(O)c1ccccc1C1=c2cc3c4c(c2Oc2c1cc1c5c2CCCN5CCC1)CCC[N+]=4CCC3.[Cl-]` [rhodamine 101], the “Qabs of the standard” value ([3]; ethanol) is listed as 100%.

For `O=C(O)c1cccc(CN(CCN(Cc2cccc(C(=O)O)n2)Cc2cccc(C(=O)O)n2)Cc2cccc(C(=O)O)n2)n1` [tpaen, N,N,N′,N′-tetrakis[(6-carboxypyridine-2-yle)methyl]-ethylene diamine], the “de-protonation constant pKa1” value [4] was 2.8 (1), the “de-protonation constant pKa2” value [4] was 3.2 (1) and the “de-protonation constant pKa3” value [4] was 3.9 (2). For the same compound, the “de-protonation constant pKa4” value [4] was 5.1 (1), the “de-protonation constant pKa5” value [4] was 7.8 (1) and the λexc [5] was 270 nm. For the same compound, the ε ([5]; at λexc) was 15800 M⁻¹ cm⁻¹, the “selectivity for Europium with respect to calcium” value ([6]; from pEu versus pCa) was “good selectivity regarding Europium with respect to calcium” and the “pEu (−log [M]free)” value [6, 8] was 15.7. The “pGd (−log [M]free)” value [7] was 15.0 and the “pCa (−log [M]free)” value [1, 8] was 8.5.

For cresyl violet, the “Qabs of the standard” value ([3]; methanol) is given as 54%.
